These results are taken from patent US9303042B2, “Triazolothienopyrimidine compound inhibitors of urea transporters and methods of using inhibitors” (The Regents of the University of California, priority 2012, dated 2016).

Data set [1] can be described thus: In vitro metabolic stability in hepatic microsomes. Type of data set: in vitro ADME, rat.
Method: Compounds, each at 5 μM, were incubated for specified times at 37° C. with rat liver microsomes (1 mg protein/ml; Sigma-Aldrich, St. Louis, Mo.) in potassium phosphate buffer (100 mM) containing 1 mM NADPH. The mixture was then chilled on ice, and 0.5 ml of ice-cold ethyl acetate was added.
Data set [2] is described as follows: LC/MS analysis of compound in mouse kidney, blood and urine. The note with it: for many hours after intraperitoneal bolus 400 μg. As for the experimental part: In some studies, mice were placed on low, normal or […] diets (4%, 20% or 40% casein, Harlan Labs.) for 1 week prior study of dDAVP effects. […] Urea concentration was determined by a colorimetric enzymatic assay as described above. Measurements were also done in the absence of dDAVP in which urine was collected during free access to food and water.
Kidneys were weighed, mixed with acetic acid (100 μL per 1 g tissue) and ethyl acetate (10 mL per 1 g tissue), and homogenized.

The test system of data set [3] is mice. The experiment in a line: Urinary concentration in mice. Type of data set: in vivo, mouse. How it is done:
In some studies, mice were placed on low, normal or […] diets (4%, 20% or 40% casein, Harlan Labs.) for 1 week prior study of dDAVP effects. […] Urea concentration was determined by a colorimetric enzymatic assay as described above. Measurements were also done in the absence of dDAVP in which urine was collected during free access to food and water. […]

Data set [4] concerns UT. The note with it: literature; cited from earlier work.
Data set [5] addresses T1, UT-B (Mus musculus, UniProt Q8VHL0).
T1 sequence (Q8VHL0 1-384): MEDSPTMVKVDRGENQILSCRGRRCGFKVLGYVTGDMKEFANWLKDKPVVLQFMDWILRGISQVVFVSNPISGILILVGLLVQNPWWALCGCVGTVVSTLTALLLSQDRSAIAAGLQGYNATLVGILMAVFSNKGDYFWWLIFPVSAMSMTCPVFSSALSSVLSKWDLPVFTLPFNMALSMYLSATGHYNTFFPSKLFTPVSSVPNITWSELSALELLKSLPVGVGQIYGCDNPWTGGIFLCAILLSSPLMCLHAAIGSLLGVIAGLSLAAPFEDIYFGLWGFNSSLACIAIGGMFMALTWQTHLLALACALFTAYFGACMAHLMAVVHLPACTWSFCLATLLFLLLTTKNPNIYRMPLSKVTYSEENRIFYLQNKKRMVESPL
In words: Transepithelial urea transport in MDCK cells stably expressing UT-B. Type of data set: cell-based. The note with it: phloretin 100 μM. How it is done: (§1) UT-B selectivity and cytotoxicity were studied. Because of sequence similarities between UT-B and UT-A isoforms, UT-A inhibition was measured. Transepithelial urea transport was measured in MDCK cells stably expressing UT-A1, UT-A3, and UT-B. UT-A1 and UT-A3 are cAMP-regulated urea transporters expressed in kidney tubule epithelia (see, e.g., Frohlich et al., Am. J. Physiol. Cell Physiol. 291:C600-606 (2006); Tickle et al., Am. J. Physiol. Regul. Integr. Comp Physiol 0.297: R323-329 (2009); Stewart et al., Am. J. Physiol. Renal Physiol. 292:F1157-63 (2006)). MDCK cells were cultured on collagen-coated porous filters for measurement of urea accumulation in the apical solution following addition of urea to the basolateral solution.
(§2) cDNAs encoding mouse UT-A3 and UT-B were cloned into pcDNA3.1 and used to generate stably transfected MDCK cell lines. MDCK cells stably expressing rat UT-A1 (MDCK-UT-A1) (see, e.g., Frohlich et al., supra) were obtained as described (see, e.g., Levin et al., FASEB J., supra). Cells were cultured in DMEM containing 10% FBS and 0.5 mg/mL G418. […] Urea flux in the basolateral-to-apical direction across unstimulated and forskolin-stimulated cell layers was measured in response to a 15-mM urea gradient. […]

Data set [6] concerns the target T2, UT-A1 (Rattus norvegicus, UniProt Q62668).
T2 construct: expressed in transfected cells; host or cells: MDCK cells (MDCK-UT-A1), obtained as described in cited literature
T2 sequence (Q62668 1-929): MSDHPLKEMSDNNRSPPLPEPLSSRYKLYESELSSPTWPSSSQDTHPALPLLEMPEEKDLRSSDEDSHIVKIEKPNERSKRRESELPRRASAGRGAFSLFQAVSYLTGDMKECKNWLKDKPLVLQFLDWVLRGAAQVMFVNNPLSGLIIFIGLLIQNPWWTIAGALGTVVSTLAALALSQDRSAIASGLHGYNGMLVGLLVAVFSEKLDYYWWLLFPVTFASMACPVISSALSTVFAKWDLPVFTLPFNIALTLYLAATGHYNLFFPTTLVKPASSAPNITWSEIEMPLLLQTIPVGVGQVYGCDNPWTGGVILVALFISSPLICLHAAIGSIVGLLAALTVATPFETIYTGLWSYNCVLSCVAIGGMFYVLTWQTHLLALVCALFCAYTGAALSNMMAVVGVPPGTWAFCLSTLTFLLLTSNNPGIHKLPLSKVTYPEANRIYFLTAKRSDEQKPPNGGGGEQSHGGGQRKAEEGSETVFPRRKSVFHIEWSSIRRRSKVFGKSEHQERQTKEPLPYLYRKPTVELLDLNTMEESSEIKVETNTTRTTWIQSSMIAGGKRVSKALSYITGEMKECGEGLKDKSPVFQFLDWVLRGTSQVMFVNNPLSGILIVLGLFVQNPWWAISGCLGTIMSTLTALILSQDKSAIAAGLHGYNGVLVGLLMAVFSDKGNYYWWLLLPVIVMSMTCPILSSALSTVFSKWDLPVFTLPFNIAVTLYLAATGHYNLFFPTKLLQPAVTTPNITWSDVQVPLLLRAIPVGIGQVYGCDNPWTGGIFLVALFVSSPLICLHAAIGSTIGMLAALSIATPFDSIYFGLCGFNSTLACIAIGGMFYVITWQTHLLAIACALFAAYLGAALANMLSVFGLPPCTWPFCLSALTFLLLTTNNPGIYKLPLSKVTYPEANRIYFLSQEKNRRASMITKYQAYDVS
In words: Transepithelial urea transport in MDCK cells stably expressing UT-A1. Type of data set: cell-based. The settings on record: phloretin 100 μM. How it is done: as §1, §2

Data set [7] addresses T3, UT-A3 (Mus musculus, UniProt Q8R4T9).
T3 construct: expressed in transfected cells
T3 sequence (Q8R4T9 1-461 isoform Q8R4T9-3): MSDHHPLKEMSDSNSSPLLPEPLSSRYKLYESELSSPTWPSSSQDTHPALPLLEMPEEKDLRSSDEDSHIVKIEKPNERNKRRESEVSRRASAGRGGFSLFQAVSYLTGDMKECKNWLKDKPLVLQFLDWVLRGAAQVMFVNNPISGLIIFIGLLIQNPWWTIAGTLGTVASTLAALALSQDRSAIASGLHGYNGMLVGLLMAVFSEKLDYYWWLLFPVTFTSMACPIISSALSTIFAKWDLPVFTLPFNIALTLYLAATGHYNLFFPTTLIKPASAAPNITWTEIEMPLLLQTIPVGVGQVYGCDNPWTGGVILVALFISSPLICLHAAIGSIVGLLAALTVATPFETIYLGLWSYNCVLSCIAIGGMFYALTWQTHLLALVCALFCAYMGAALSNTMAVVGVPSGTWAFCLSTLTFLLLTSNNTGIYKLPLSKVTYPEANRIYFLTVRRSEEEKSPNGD
The experiment in a line: Transepithelial urea transport in MDCK cells stably expressing UT-A3. Type of data set: cell-based. The settings on record: phloretin 100 μM. As for the experimental part: as §1, §2

Data set [8] addresses T4, TMEM16A (Homo sapiens, UniProt Q5XXA6).
T4 construct: expressed in transfected cells
T4 sequence (Q5XXA6 1-986): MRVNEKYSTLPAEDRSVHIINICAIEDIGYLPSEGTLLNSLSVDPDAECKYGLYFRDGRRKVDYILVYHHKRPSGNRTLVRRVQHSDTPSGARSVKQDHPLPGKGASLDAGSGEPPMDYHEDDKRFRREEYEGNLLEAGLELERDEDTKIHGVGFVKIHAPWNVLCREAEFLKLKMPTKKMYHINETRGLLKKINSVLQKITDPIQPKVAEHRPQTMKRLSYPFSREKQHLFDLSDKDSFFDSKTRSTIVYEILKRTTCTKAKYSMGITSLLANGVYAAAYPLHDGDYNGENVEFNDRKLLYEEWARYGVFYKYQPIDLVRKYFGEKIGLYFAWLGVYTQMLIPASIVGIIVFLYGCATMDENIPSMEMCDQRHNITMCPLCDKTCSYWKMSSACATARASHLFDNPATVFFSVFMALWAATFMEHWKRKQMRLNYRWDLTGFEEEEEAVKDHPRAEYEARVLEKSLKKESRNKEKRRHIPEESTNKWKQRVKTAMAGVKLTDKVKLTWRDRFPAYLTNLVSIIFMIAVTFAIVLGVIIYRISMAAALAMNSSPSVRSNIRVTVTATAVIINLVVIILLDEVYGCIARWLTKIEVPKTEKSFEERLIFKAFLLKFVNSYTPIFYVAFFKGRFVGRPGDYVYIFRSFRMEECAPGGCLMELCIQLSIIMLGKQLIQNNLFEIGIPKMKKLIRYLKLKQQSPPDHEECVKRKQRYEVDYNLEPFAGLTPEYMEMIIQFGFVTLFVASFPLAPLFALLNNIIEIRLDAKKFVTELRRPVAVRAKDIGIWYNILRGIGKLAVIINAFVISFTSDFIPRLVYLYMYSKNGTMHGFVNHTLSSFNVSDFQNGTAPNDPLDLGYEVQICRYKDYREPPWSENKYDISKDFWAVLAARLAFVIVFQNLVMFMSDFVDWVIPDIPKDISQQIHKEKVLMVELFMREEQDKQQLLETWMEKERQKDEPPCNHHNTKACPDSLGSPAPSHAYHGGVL
In words: TMEM16A calcium-activated chloride conductance by short-circuit current. Type of data set: cell-based. The note with it: 100 μM. How it is done:
CFTR chloride conductance was measured by short-circuit current analysis in Fisher rat thyroid (FRT) cells stably expressing CFTR, as described (see, e.g., Ma et al., J. Biol. Chem. (2002), supra). CFTR chloride conductance was stimulated by forskolin and inhibited by a thiazolidinone compound that inhibits CFTR (CFTRinh-172). TMEM16A calcium-activated chloride conductance was measured by short-circuit current analysis in FRT cells stably expressing TMEM16A, as described (see, e.g., Namkung et al., J. Biol. Chem. 286:2365-2374, 2011. TMEM16A was stimulated by ATP and inhibited by tannic acid (100 μM). Cytotoxicity was measured in MDCK using the MTT assay [3(4,5-dimethyl-thiazol-2-yl)-2,5-diphenyl tetrazolium bromide] by standard procedures.

For data set [9], the target named is T5, CFTR (Homo sapiens, UniProt P13569).
T5 construct: expressed in transfected cells
T5 sequence (P13569 whole entry): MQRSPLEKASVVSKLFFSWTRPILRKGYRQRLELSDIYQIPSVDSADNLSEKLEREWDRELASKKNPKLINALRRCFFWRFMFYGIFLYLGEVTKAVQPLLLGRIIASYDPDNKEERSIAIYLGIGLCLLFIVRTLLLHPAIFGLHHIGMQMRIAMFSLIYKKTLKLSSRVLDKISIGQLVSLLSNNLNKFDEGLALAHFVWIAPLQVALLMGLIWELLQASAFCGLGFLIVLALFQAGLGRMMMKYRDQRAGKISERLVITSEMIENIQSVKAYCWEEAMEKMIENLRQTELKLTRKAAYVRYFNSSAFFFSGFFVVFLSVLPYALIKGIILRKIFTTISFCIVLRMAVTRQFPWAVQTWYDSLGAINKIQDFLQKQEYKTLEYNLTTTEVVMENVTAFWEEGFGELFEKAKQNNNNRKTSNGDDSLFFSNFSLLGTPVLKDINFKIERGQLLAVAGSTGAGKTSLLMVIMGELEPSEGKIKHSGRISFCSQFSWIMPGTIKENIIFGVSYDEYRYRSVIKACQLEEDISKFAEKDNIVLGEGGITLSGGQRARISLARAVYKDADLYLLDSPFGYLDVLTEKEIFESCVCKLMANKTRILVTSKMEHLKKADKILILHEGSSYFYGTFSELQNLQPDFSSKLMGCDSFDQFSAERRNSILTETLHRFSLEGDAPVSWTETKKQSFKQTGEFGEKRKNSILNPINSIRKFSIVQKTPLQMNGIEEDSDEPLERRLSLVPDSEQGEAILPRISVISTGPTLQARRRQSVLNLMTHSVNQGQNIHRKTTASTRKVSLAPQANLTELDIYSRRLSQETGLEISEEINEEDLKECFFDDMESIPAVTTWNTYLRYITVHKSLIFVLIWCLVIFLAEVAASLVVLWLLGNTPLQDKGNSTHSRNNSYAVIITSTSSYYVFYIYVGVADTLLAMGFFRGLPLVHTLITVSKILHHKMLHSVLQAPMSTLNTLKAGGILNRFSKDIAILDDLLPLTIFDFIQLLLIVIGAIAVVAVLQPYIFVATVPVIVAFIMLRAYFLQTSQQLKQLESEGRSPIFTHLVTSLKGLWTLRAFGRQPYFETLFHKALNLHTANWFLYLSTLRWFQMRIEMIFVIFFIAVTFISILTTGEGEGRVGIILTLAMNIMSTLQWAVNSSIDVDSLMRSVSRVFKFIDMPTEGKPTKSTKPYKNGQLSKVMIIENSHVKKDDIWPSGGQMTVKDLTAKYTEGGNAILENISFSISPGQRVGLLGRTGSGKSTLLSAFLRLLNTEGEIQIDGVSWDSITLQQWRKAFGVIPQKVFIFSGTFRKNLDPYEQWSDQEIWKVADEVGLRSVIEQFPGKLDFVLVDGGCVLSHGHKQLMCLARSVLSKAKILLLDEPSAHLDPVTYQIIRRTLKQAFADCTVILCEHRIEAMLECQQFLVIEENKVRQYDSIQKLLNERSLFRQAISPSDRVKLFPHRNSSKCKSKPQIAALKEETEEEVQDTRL
The experiment in a line: CFTR chloride conductance by short-circuit current. Type of data set: cell-based. The note with it: 20 μM.

As for `CC(F)(F)c1ccc(S(=O)(=O)c2nnn3c2nc(NCc2cccs2)c2sccc23)cc1` [Compound 3k, {3-[4-(1,1-Difluoro-ethyl)-benzenesulfonyl]-thieno[2,3-e][1,2,3]triazolo[1,5-a]pyrimidin-5-yl}-thiophen-2-ylmethyl-amine], in [1] (hepatic microsomes, NADPH), the “t1/2 for disappearance in hepatic microsomes” value is “approximately 120 min”. Moreover, the “% Remaining” value in data set [1] (parent molecule after 30 min incubation with rat liver microsomes) turned out to be 96%. The “stability in vitro compared to UTBinh 14” value in data set [1] (ratio of microsomal t1/2) was “approximately 40 fold”. In [2], the “concentrations in blood, kidney and urine” value is below 1000 nM. Also, the “reduction of urine osmolality” value in [3] (400 μg intraperitoneal, dDAVP 1 h later, vs formulation alone) was “approximately 0.5 Osm/kg H2O”.

For the compound `O=C(CCc1ccc(O)cc1)c1c(O)cc(O)cc1O` [phloretin, reference compound], the concentration exhibiting activity in data set [4] is above 0.5 mM. Moreover, in [5], the “UT-facilitated urea transport (UT-B)” value is listed as “inhibited”. The “UT-facilitated urea transport (UT-A1)” value in data set [6] is given as “inhibited”. The “UT-facilitated urea transport (UT-A3)” value in data set [7] is “inhibited”.

With `O=C(OC[C@H]1O[C@@H](OC(=O)c2cc(O)c(O)c(OC(=O)c3cc(O)c(O)c(O)c3)c2)[C@H](OC(=O)c2cc(O)c(O)c(OC(=O)c3cc(O)c(O)c(O)c3)c2)[C@@H](OC(=O)c2cc(O)c(O)c(OC(=O)c3cc(O)c(O)c(O)c3)c2)[C@@H]1OC(=O)c1cc(O)c(O)c(OC(=O)c2cc(O)c(O)c(O)c2)c1)c1cc(O)c(O)c(OC(=O)c2cc(O)c(O)c(O)c2)c1` [tannic acid, reference compound], in [8], the “ATP-induced current (TMEM16A)” value is recorded as “blocked”.

Turning to CFTRinh-172 [reference compound], the CFTR chloride current result in [9] was “blocked”.

Take “[1-deamino-8-D-arginine]-vasopressin [dDAVP, reference compound]”: in data set [3] (control (formulation alone) mice), the “urine osmolality after dDAVP” value is above 3 Osm/kg H2O. For the same compound, the “urine osmolality following dDAVP” value in data set [3] (dDAVP 1 μg/kg intraperitoneal, over several hours) is recorded as above 3000 mosm/kg H2O.
